Results from US6951871B2, “Indole derivatives useful as histamine H3 antagonists” (Schering Corporation, priority 2002, dated 2005).

Target: T1, H3 receptors (Cavia porcellus, UniProt Q9JI35)
T1 construct: The source of the H3 receptors in this experiment was guinea pig brain; from tissue; host or cells: guinea pig brain membranes
Test: H3-Receptor Binding Assay
Conditions: guinea pig brain membranes; 3 nM [3H]R-α-methyl histamine or 3 nM [3H]Nα-methyl histamine; 30° C., 30 min
Method: Using the appropriate indolene starting materials in a similar procedure, the following compounds were prepared: [drawing 145] General Procedure for H3-Receptor Binding Assay
The source of the H3 receptors in this experiment was guinea pig brain. The animals weighed 400-600 g. The brain tissue was homogenized with a solution of 50 mM Tris, pH 7.5. The final concentration of tissue in the homogenization buffer was 10% w/v. The homogenates were centrifuged at 1,000×g for 10 min. in order to remove clumps of tissue and debris. The resulting supernatants were then centrifuged at 50,000×g for 20 min. in order to sediment the membranes, which were next washed three times in homogenization buffer (50,000×g for 20 min. each). The membranes were frozen and stored at −70° C. until needed.
All compounds to be tested were dissolved in DMSO and then diluted into the binding buffer (50 mM Tris, pH 7.5) such that the final concentration was 2 μg/ml with 0.1% DMSO. Membranes were then added (400 μg of protein) to the reaction tubes. The reaction was started by the addition of 3 nM [^3H]R-α-methyl histamine (8.8 Ci/mmol) or 3 nM [^3H]N^α-methyl histamine (80 Ci/mmol) and continued under incubation at 30° C. for 30 min. Bound ligand was separated from unbound ligand by filtration, and the amount of radioactive ligand bound to the membranes was quantitated by liquid scintillation spectrometry. […]

T1 sequence (Q9JI35 whole entry): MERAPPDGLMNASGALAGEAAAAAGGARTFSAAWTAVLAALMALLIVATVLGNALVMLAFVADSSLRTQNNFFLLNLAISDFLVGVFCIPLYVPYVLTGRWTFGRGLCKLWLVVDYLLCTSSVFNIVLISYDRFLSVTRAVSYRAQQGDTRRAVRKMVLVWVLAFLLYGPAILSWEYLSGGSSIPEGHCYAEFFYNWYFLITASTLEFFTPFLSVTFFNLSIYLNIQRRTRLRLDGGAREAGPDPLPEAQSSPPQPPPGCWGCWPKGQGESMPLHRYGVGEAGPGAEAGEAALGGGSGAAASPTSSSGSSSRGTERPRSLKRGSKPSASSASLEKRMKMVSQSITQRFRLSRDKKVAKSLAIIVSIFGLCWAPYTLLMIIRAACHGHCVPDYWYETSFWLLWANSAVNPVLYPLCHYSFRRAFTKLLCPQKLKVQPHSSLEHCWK

Ki: 1.5 nM
SMILES: Nc1cc(CN2CCC(C(=O)N3CCC(c4c(-c5ccccn5)n(Cc5ccccn5)c5ccccc45)CC3)CC2)ccn1 [Example 5]
